#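 Dose response: 5 concentrations. Exposure: 48 h. Format: 96-well plates. Endpoint: linear interpolation; highest concentration if not reached. TGI: total growth inhibition.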
# Columns and labels:
# Assay in all cases: growth of human tumour cells (NCI), 48 h
# KM12 colon = test system: KM12 colon
# HCT-15 colon = test system: HCT-15 colon
# NCI-H226 lung = test system: NCI-H226 lung
# UACC-257 melanoma = test system: UACC-257 melanoma
# CAKI-1 renal = test system: CAKI-1 renal
# NCI/ADR-RES ovarian = test system: NCI/ADR-RES ovarian
# SNB-75 CNS = test system: SNB-75 CNS
# PC-3 prostate = test system: PC-3 prostate
# COLO 205 colon = test system: COLO 205 colon
# SF-268 CNS = test system: SF-268 CNS
# 786-0 renal = test system: 786-0 renal
# MOLT-4 leukemia = test system: MOLT-4 leukemia
# HCT-116 colon = test system: HCT-116 colon
# UO-31 renal = test system: UO-31 renal
# NCI-H23 lung = test system: NCI-H23 lung
# UACC-62 melanoma = test system: UACC-62 melanoma
# MALME-3M melanoma = test system: MALME-3M melanoma
# DU-145 prostate = test system: DU-145 prostate
# OVCAR-4 ovarian = test system: OVCAR-4 ovarian
# SN12C renal = test system: SN12C renal
# SW-620 colon = test system: SW-620 colon
# OVCAR-8 ovarian = test system: OVCAR-8 ovarian
# BT-549 breast = test system: BT-549 breast
# SNB-19 CNS = test system: SNB-19 CNS
# EKVX NSCLC = test system: EKVX NSCLC
# MDA-MB-231 breast = test system: MDA-MB-231 breast
# HT29 colon = test system: HT29 colon
# MDA-N = test system: MDA-N
# M14 melanoma = test system: M14 melanoma
# MCF7 breast = test system: MCF7 breast
# SF-295 CNS = test system: SF-295 CNS
# LOX IMVI melanoma = test system: LOX IMVI melanoma
# TK-10 renal = test system: TK-10 renal
# HS 578T breast = test system: HS 578T breast
# OVCAR-5 ovarian = test system: OVCAR-5 ovarian
# IGROV1 ovarian = test system: IGROV1 ovarian
# A549 NSCLC = test system: A549 NSCLC
# HCC-2998 colon = test system: HCC-2998 colon
# RXF 393 renal = test system: RXF 393 renal
# MDA-MB-435 = test system: MDA-MB-435
# NCI-H460 lung = test system: NCI-H460 lung
# HOP-62 NSCLC = test system: HOP-62 NSCLC
# SK-OV-3 ovarian = test system: SK-OV-3 ovarian
# OVCAR-3 ovarian = test system: OVCAR-3 ovarian
# SK-MEL-5 melanoma = test system: SK-MEL-5 melanoma
# T-47D breast = test system: T-47D breast
# SK-MEL-28 melanoma = test system: SK-MEL-28 melanoma
# SR leukemia = test system: SR leukemia
# U251 CNS = test system: U251 CNS
# NCI-H522 lung = test system: NCI-H522 lung
# HOP-92 NSCLC = test system: HOP-92 NSCLC
# SF-539 CNS = test system: SF-539 CNS
# A498 renal = test system: A498 renal
# SK-MEL-2 melanoma = test system: SK-MEL-2 melanoma
# ACHN renal = test system: ACHN renal
# K-562 leukemia = test system: K-562 leukemia
# RPMI-8226 leukemia = test system: RPMI-8226 leukemia
# HL-60(TB) leukemia = test system: HL-60(TB) leukemia
# CCRF-CEM leukemia = test system: CCRF-CEM leukemia
compound,measurement,setting,value
O=C1C=CC(=Nc2cccc3c(N=C4C=CC(=O)O4)cccc23)O1,TGI,KM12 colon,> 100 µM
same,TGI,HCT-15 colon,> 100 µM
same,TGI,NCI-H226 lung,> 100 µM
same,TGI,UACC-257 melanoma,55.6 µM
same,TGI,CAKI-1 renal,35.5 µM
same,TGI,NCI/ADR-RES ovarian,> 100 µM
same,TGI,SNB-75 CNS,> 100 µM
same,TGI,PC-3 prostate,> 100 µM
same,TGI,COLO 205 colon,40.4 µM
same,TGI,SF-268 CNS,> 100 µM
same,TGI,786-0 renal,34.5 µM
same,TGI,MOLT-4 leukemia,19.8 µM
same,TGI,HCT-116 colon,53.1 µM
same,TGI,UO-31 renal,> 100 µM
same,TGI,NCI-H23 lung,> 100 µM
same,TGI,UACC-62 melanoma,> 100 µM
same,TGI,MALME-3M melanoma,42.8 µM
same,TGI,DU-145 prostate,> 100 µM
same,TGI,OVCAR-4 ovarian,> 100 µM
same,TGI,SN12C renal,77.9 µM
same,TGI,SW-620 colon,34.3 µM
same,TGI,OVCAR-8 ovarian,41.1 µM
same,TGI,BT-549 breast,> 100 µM
same,TGI,SNB-19 CNS,> 100 µM
same,TGI,EKVX NSCLC,35.2 µM
same,TGI,MDA-MB-231 breast,> 100 µM
same,TGI,HT29 colon,> 100 µM
same,TGI,MDA-N,69.1 µM
same,TGI,M14 melanoma,87.8 µM
same,TGI,MCF7 breast,> 100 µM
same,TGI,SF-295 CNS,> 100 µM
same,TGI,LOX IMVI melanoma,91.2 µM
same,TGI,TK-10 renal,33.3 µM
same,TGI,HS 578T breast,> 100 µM
same,TGI,OVCAR-5 ovarian,> 100 µM
same,TGI,IGROV1 ovarian,> 100 µM
same,TGI,A549 NSCLC,> 100 µM
same,TGI,HCC-2998 colon,> 100 µM
same,TGI,RXF 393 renal,50 µM
same,TGI,MDA-MB-435,> 100 µM
same,TGI,NCI-H460 lung,> 100 µM
same,TGI,HOP-62 NSCLC,> 100 µM
same,TGI,SK-OV-3 ovarian,> 100 µM
same,TGI,OVCAR-3 ovarian,> 100 µM
same,TGI,SK-MEL-5 melanoma,> 100 µM
same,TGI,T-47D breast,> 100 µM
same,TGI,SK-MEL-28 melanoma,> 100 µM
same,TGI,SR leukemia,48.1 µM
same,TGI,U251 CNS,> 100 µM
same,TGI,NCI-H522 lung,34.3 µM
same,TGI,HOP-92 NSCLC,> 100 µM
same,TGI,SF-539 CNS,36.1 µM
same,TGI,A498 renal,> 100 µM
same,TGI,SK-MEL-2 melanoma,> 100 µM
same,TGI,ACHN renal,78.5 µM
same,TGI,K-562 leukemia,55.6 µM
same,TGI,RPMI-8226 leukemia,58.2 µM
NC(N)=NS(=O)(=O)c1ccc(NNC(=O)c2cccc3c(=O)c4ccccc4[nH]c23)cc1,TGI,HL-60(TB) leukemia,62.1 µM
same,TGI,KM12 colon,57 µM
same,TGI,HCT-15 colon,50.5 µM
same,TGI,NCI-H226 lung,67.2 µM
same,TGI,UACC-257 melanoma,74.8 µM
same,TGI,CAKI-1 renal,94.6 µM
same,TGI,NCI/ADR-RES ovarian,> 100 µM
same,TGI,SNB-75 CNS,> 100 µM
same,TGI,PC-3 prostate,89.7 µM
same,TGI,COLO 205 colon,54.7 µM
same,TGI,SF-268 CNS,> 100 µM
same,TGI,786-0 renal,> 100 µM
same,TGI,MOLT-4 leukemia,80.9 µM
same,TGI,HCT-116 colon,59.5 µM
same,TGI,UO-31 renal,50.4 µM
same,TGI,NCI-H23 lung,87 µM
same,TGI,UACC-62 melanoma,88.9 µM
same,TGI,MALME-3M melanoma,35.4 µM
same,TGI,DU-145 prostate,> 100 µM
same,TGI,OVCAR-4 ovarian,83.5 µM
same,TGI,SN12C renal,> 100 µM
same,TGI,SW-620 colon,> 100 µM
same,TGI,OVCAR-8 ovarian,59.4 µM
same,TGI,BT-549 breast,73.6 µM
same,TGI,SNB-19 CNS,> 100 µM
same,TGI,EKVX NSCLC,62.2 µM
same,TGI,CCRF-CEM leukemia,> 100 µM
same,TGI,MDA-MB-231 breast,95.2 µM
same,TGI,HT29 colon,41.8 µM
same,TGI,MDA-N,60.9 µM
same,TGI,M14 melanoma,34.9 µM
same,TGI,MCF7 breast,34.3 µM
same,TGI,SF-295 CNS,> 100 µM
same,TGI,LOX IMVI melanoma,47.7 µM
same,TGI,TK-10 renal,94 µM
same,TGI,HS 578T breast,> 100 µM
same,TGI,OVCAR-5 ovarian,> 100 µM
same,TGI,IGROV1 ovarian,> 100 µM
same,TGI,A549 NSCLC,> 100 µM
same,TGI,HCC-2998 colon,38.3 µM
same,TGI,RXF 393 renal,77.2 µM
same,TGI,MDA-MB-435,57.5 µM
same,TGI,NCI-H460 lung,49.1 µM
same,TGI,HOP-62 NSCLC,73.5 µM
same,TGI,SK-OV-3 ovarian,89.2 µM
same,TGI,OVCAR-3 ovarian,57.5 µM
same,TGI,SK-MEL-5 melanoma,36.1 µM
same,TGI,T-47D breast,59.2 µM
same,TGI,SK-MEL-28 melanoma,65.9 µM
same,TGI,SR leukemia,> 100 µM
same,TGI,U251 CNS,> 100 µM
same,TGI,NCI-H522 lung,46.1 µM
same,TGI,HOP-92 NSCLC,79.6 µM
same,TGI,SF-539 CNS,58.7 µM
same,TGI,SK-MEL-2 melanoma,63.7 µM
same,TGI,ACHN renal,61.4 µM
same,TGI,K-562 leukemia,53 µM
same,TGI,RPMI-8226 leukemia,> 100 µM

# From PubChem BioAssay (NCI)
